# US10682337B2, “Compositions and methods for treatment and prevention of pyrexia in horses” (Kindred Biosciences, Inc., priority 2015, dated 2020)
# Experiments:
# Format in all cases: in vivo
# [1] = oral bioavailability of metamizole in horses (plasma 4-MAA); settings: four horses; 30 mg/kg; water slurry via nasogastric intubation vs IV Vetalgina; plasma 4-MAA up to 48 hours; FIG. 1
# Description: The commercially available Vetalgina product (Intervet) for IV administration (sodium salt) was administered in accordance with the manufacturer's instructions. Plasma was collected prior to administration and at specified intervals for up to 48 hours. Horses underwent a washout period, and then were administered the active ingredient (metamizole sodium monohydrate) in a water slurry to the horses' stomach via nasogastric intubation. Plasma was collected again prior to […] administration and at specified intervals for up to 48 hours. Horses were treated with matched doses on a milligram per kilogram basis for both test articles. Plasma was assayed for the primary metabolite of metamizole sodium, 4-methylaminoantipyrine (4-MAA).
# [2] = system: horses with clinical signs of infectious disease; experiment: two-phase efficacy study of oral metamizole in mature horses
# Description: A two-phase study to determine the efficacy of oral metamizole in mature horses was conducted as follows. In the first phase, 9 horses with clinical signs of infectious disease were enrolled.
# In the second phase, 8 horses with clinical signs of infectious disease were enrolled.
# The oral formulation of metamizole used for both phases was an aqueous formulation comprising 500 mg/ml metamizole sodium monohydrate, 10 mg/ml xanthan gum, and 100 mg/ml propylene glycol, and 15 mg/ml benzyl alcohol. The formulation was adjusted to pH 7.8 using sodium hydroxide.
# For both phases, rectal temperature was monitored at pre-determined intervals. Horses were redosed based on rectal temperature and minimum dosing intervals up to five additional times, for a total of six doses. Fever was required for redose with metamizole.
# [3] = system: horses with naturally occurring respiratory infections; experiment: pilot efficacy study of orally administered metamizole in horses with fever; settings: of 8 horses; oral gel 30 mg/kg; ≥2° F. decrease or ≤101.0° F. 6 hours following dose
# Description: Metamizole, as an active ingredient, was formulated into a simple gel for oral administration and dosed at 30 mg/kg body weight. Eight horses with naturally occurring respiratory infections were provided. The temperatures of the horses were monitored. […] Horses were treated up to three times with an oral formulation of metamizole sodium. Rectal temperature was monitored to determine response to treatment. […] Pyrexia returned at timepoints appropriate for the drug's plasma residence time.
structure (smiles),measurement,setting,value
"Cc1c(N(C)CS(=O)(=O)O)c(=O)n(-c2ccccc2)n1C [metamizole, [(2,3-dihydro-1,5-dimethyl-3-oxo-2-phenyl-1H-pyrazol-4-yl)methylamino] methanesulfonic acid]","bioavailability, orally vs parenterally administered metamizole",[1],comparable bioavailability
Cc1c(N(C)CS(=O)(=O)O)c(=O)n(-c2ccccc2)n1C [metamizole sodium monohydrate],Adverse events,"[2]; 30 and 40 mg/kg oral, up to six doses",consistent with the underlying infections required for enrollment
same,horses defined as primary responders after Dose 1,"[2]; Phase 2, 40 mg/kg oral",7/8
same,horses defined as primary responders after Dose 1,"[2]; phase 1, 30 mg/kg oral",7/9
Cc1c(N(C)CS(=O)(=O)O)c(=O)n(-c2ccccc2)n1C [metamizole sodium],horses with clinically significant improvement in rectal temperature,[3],8
